Measurements taken from US20080312322A1, “Organic Compounds” (priority 2005, published 2008).

What was measured:
CRTh2 receptor [1] = biological target: T1, CRTh2 receptor (Homo sapiens, UniProt Q9Y5Y4); assay: CRTh2 cAMP functional assay; assay type: cell-based; set-up: expressed in transfected cells; host or cells: CHO cells; conditions: CHO cells stably transfected with CRTh2; 10 nM PGD2 and 5 μM forskolin; cAMP Alphascreen
T1 sequence (Q9Y5Y4 1-395): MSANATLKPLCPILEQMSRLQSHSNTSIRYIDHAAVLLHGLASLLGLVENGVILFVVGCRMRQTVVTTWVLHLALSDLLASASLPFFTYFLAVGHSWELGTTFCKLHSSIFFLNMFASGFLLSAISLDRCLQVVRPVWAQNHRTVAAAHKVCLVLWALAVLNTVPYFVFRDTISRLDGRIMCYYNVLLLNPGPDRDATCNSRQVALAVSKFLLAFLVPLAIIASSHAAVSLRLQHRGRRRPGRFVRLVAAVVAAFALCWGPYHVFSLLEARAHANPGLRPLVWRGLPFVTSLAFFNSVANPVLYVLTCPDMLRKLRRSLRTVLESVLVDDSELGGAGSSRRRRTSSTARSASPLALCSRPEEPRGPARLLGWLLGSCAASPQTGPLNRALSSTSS
Protocol: CRTh2 cAMP Assay Protocol
Test compounds are prepared in assay stimulation buffer/DMSO and 5 μL/well is added to an assay plate (384-well white opti-plate).
CHO cells stably transfected with the CRTh2 receptor are prepared (dissociated from a cell culture flask and washed in PBS) to a concentration of 4×10^6/mL in assay stimulation buffer and added to the assay plate (10 μL/well).
The assay plate is incubated at room temperature on a shaker for 15 minutes.
A mix of agonist (10 nM PGD2) and 5 μM forskolin is prepared in assay stimulation buffer and added to the assay plate (5 μL/well).
In addition, a cAMP standard is serially diluted in assay stimulation buffer and added to separate empty wells on the assay plate (20 μL/well).
The assay plate is incubated at room temperature on a shaker for 60 minutes.
A cell lysis mix (lysis buffer containing Alphascreen™ donor beads and biotinylated cAMP) is prepared under darkened conditions 60 minutes prior to addition. Alphascreen™ acceptor beads are added to the lysis mix after 60 minutes. […]
The assay plate is sealed with Topseal-S™ and incubated in the dark at room temperature on a shaker for 45 minutes. The plate is then counted using a Packard Fusion™ instrument.
The resulting counts per minute are converted to nM cAMP by using the prepared cAMP standard curve. IC50 values are then determined using Prism™ software.

CRTh2 receptor [2] = biological target: T1, CRTh2 receptor; assay: Scintillation Proximity Assay (SPA) binding assay, 3H PGD2; set-up: expressed in transfected cells; host or cells: K562 or CHO cells, membranes; conditions: membranes from K562 or CHO cells stably transfected with human CRTh2; 3H prostaglandin D2
Protocol: Scintillation Proximity Assay (SPA) protocol
Membranes are prepared from K562 or Chinese Hamster Ovary (CHO) cells stably transfected with human CRTh2 receptors.
The assay is performed in a 96-well U-bottomed polypropylene plate in a final volume of 100 μL and the components of the assay are added as follows: test compound in DMSO/assay buffer (25 μL), ^3H prostaglandin D2 (PGD2) (25 μL) and CRTh2 membrane fragments (50 μL). The assay is incubated at ambient temperature with shaking for 60 minutes, then harvested on to filter plates. The plate is dried for 2 hours, prior to addition of Micro-Scint 20M (50 μL) and sealing with TopSeal-S™. Plates are then counted using a Packard Top Count instrument, each well being counted for 20 minutes. Ki values are determined using Sigma Plot™ software.

IC50 (CRTh2 receptor [1]) [nM] | Ki (CRTh2 receptor [2]) [nM] | Compound
68 |  | CCOC(=O)COc1ccc(Cl)cc1Cc1cc(Cl)ccc1OCC(=O)O [Example 2, [4-chloro-2-(5-chloro-2-ethoxycarbonylmethoxy-benzyl)-phenoxy]-acetic acid]
52 | 58 | CC(C)(Oc1ccc(Cl)cc1Cc1cc(Cl)ccc1OCC(=O)O)C(=O)O [Example 13, 2-[2-(2-carboxymethoxy-5-chloro-benzyl)-4-chloro-phenoxy]-2-methyl-propionic acid]
